{"source": "patent US11078183B2", "about": "“Tetrahydrate of H3 ligand, its process of preparation and pharmaceutical compositions comprising the same” (BIOPROJET, priority 2017, dated 2021)", "key": {"histamine H3": {"molecular_target": "histamine H3 (Homo sapiens, UniProt Q9Y5N1)", "sequence (Q9Y5N1 whole entry)": "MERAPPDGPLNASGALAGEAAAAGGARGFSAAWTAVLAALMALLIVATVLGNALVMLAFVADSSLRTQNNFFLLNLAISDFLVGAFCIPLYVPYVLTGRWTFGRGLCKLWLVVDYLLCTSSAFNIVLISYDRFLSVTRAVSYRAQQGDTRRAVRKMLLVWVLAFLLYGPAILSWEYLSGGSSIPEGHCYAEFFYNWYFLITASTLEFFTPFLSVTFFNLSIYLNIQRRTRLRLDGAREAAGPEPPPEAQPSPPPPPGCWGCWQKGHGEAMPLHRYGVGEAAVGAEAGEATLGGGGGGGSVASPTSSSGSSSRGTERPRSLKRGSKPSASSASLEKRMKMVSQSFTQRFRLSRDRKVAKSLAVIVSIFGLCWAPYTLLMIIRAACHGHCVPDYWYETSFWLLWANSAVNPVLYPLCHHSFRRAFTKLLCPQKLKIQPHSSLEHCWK", "conditions": "among the H3 ligands disclosed in WO 2006/117609; cited from earlier work"}, "[1]": {"test": "Hygroscopy: water content over storage time", "assay_type": "physicochemical", "text": "This compound is hygroscopic. It uptakes water during time."}, "[2]": {"test": "Stability studies according to ICH (purity on anhydrous substance over time)", "assay_type": "physicochemical", "conditions": "for purity on anhydrous substance: specifications 98.0-102.0%; for degradation observed (in words): up to 6 months", "method": "Stability studies have been performed according to ICH.\nSimilar results were obtained for the 3 months sample at 30° C./65% relative humidity:\nStability has been assessed under ICH conditions."}, "[3]": {"test": "Degradation on drying (main impurity over drying time)", "assay_type": "physicochemical", "conditions": "for Main impurity: drying at 60° C.", "method": "Drying was not complete at 60° C. over 24 hours."}, "[4]": {"test": "Degradation on drying (main impurity over drying time)", "assay_type": "physicochemical"}, "[5]": {"conditions": "40° C./75% relative humidity, 0 months"}, "[6]": {"conditions": "40° C./75% relative humidity, 1 month"}, "[7]": {"conditions": "40° C./75% relative humidity, 3 months"}, "[8]": {"conditions": "40° C./75% relative humidity, 6 months"}}, "note": "Counter-ions that a name gives are not always drawn. Like-named read-outs stand apart in the source and are kept apart here.", "data": [{"smiles": "C[C@H]1CCCN(CCCOc2ccc(-c3cc[n+]([O-])cc3)cc2)C1", "note": "[(3S)-4-{4-[3-(3-methylpiperidin-1-yl)propoxy]phenyl}pyridine 1-oxide]", "values": [{"measurement": "potency as H3 ligand (in words)", "setting": "histamine H3", "result": "very potent"}]}, {"smiles": "C[C@H]1CCCN(CCCOc2ccc(-c3cc[n+]([O-])cc3)cc2)C1", "note": "[Example 1, (3S)-4-{4-[3-(3-methylpiperidin-1-yl)propoxy]phenyl}pyridine 1-oxide, dihydrochloride, tetrahydrate]", "values": [{"measurement": "hygroscopicity (in words)", "setting": "[1]", "result": "not hygroscopic"}, {"measurement": "water content", "setting": "[1]; [5]", "result": 16, "unit": "% in weight"}, {"measurement": "water content", "setting": "[1]; [6]", "result": 16, "unit": "% in weight"}, {"measurement": "water content", "setting": "[1]; [7]", "result": 15, "unit": "% in weight"}, {"measurement": "water content", "setting": "[1]; [8]", "result": 16, "unit": "% in weight"}, {"measurement": "water content", "setting": "[1]; 40° C./75% relative humidity, 12 months", "result": 15, "unit": "% in weight"}, {"measurement": "water content modification (in words)", "setting": "[1]; 40° C./75% relative humidity, up to 12 months", "result": "no water content modification is observed"}, {"measurement": "purity on anhydrous substance", "setting": "[2]; [5]", "result": 99.6}, {"measurement": "purity on anhydrous substance", "setting": "[2]; [6]", "result": 100.3}, {"measurement": "purity on anhydrous substance", "setting": "[2]; [7]", "result": 99.7}, {"measurement": "purity on anhydrous substance", "setting": "[2]; [8]", "result": 100.3}, {"measurement": "degradation observed (in words)", "setting": "[2]; 40° C./75% relative humidity", "result": "no degradation is observed"}]}, {"smiles": "C[C@H]1CCCN(CCCOc2ccc(-c3cc[n+]([O-])cc3)cc2)C1", "note": "[Example 52 of WO 2006/117609, (3S)-4-{4-[3-(3-methylpiperidin-1-yl)propoxy]phenyl}pyridine 1-oxide, dihydrochloride]", "values": [{"measurement": "completeness of drying (in words)", "setting": "[3]; drying at 60° C. over 24 hours", "result": "not complete"}, {"measurement": "Main impurity", "setting": "[3]; 0 hr", "result": 0.08, "unit": "%"}, {"measurement": "Main impurity", "setting": "[3]; 8 hr", "result": 0.08, "unit": "%"}, {"measurement": "Main impurity", "setting": "[3]; 12 hr", "result": 0.08, "unit": "%"}, {"measurement": "Main impurity", "setting": "[3]; 24 hr", "result": 0.10, "unit": "%"}, {"measurement": "outcome of drying (in words)", "setting": "[4]; drying at 80° C. or 100° C., complete removal of water", "result": "some decomposition occurred"}, {"measurement": "Main impurity", "setting": "[4]; drying at 80° C., 0 hr", "result": 0.08, "unit": "%"}, {"measurement": "Main impurity", "setting": "[4]; drying at 80° C., 8 hr", "result": 0.11, "unit": "%"}, {"measurement": "Main impurity", "setting": "[4]; drying at 80° C., 16 hr", "result": 0.12, "unit": "%"}, {"measurement": "Main impurity", "setting": "[4]; drying at 80° C., 24 hr", "result": 0.14, "unit": "%"}, {"measurement": "Main impurity", "setting": "[4]; drying at 100° C., 0 hr", "result": 0.08, "unit": "%"}, {"measurement": "Main impurity", "setting": "[4]; drying at 100° C., 8 hr", "result": 0.32, "unit": "%"}, {"measurement": "Main impurity", "setting": "[4]; drying at 100° C., 16 hr", "result": 0.44, "unit": "%"}, {"measurement": "water content", "setting": "[1]; batch stored under Good Manufacturing Practice, 0 months", "result": 1, "unit": "% in weight"}, {"measurement": "water content", "setting": "[1]; batch stored under Good Manufacturing Practice, 6 months", "result": 2, "unit": "% in weight"}, {"measurement": "water content", "setting": "[1]; batch stored under Good Manufacturing Practice, 11 months", "result": 4, "unit": "% in weight"}, {"measurement": "hygroscopicity (in words)", "setting": "[1]; dihydrochloride", "result": "hygroscopic"}, {"measurement": "hygroscopicity (in words)", "setting": "[1]; listed as dihydrochloride salt, dihydrochloride", "result": "too hygroscopic"}, {"measurement": "purity on anhydrous substance", "setting": "[2]; 30° C./65% relative humidity, 0 months", "result": 100.2}, {"measurement": "purity on anhydrous substance", "setting": "[2]; 30° C./65% relative humidity, 3 months", "result": 98.4}, {"measurement": "purity on anhydrous substance", "setting": "[2]; 40° C./75% relative humidity, 0 months, dihydrochloride", "result": 100.2}, {"measurement": "purity on anhydrous substance", "setting": "[2]; 40° C./75% relative humidity, 1 month, dihydrochloride", "result": 100.8}, {"measurement": "purity on anhydrous substance", "setting": "[2]; 40° C./75% relative humidity, 3 months, dihydrochloride", "result": 98.2}, {"measurement": "purity on anhydrous substance", "setting": "[2]; 40° C./75% relative humidity, 6 months, dihydrochloride", "result": 98.4}, {"measurement": "degradation observed (in words)", "setting": "[2]; 40° C./75% relative humidity, dihydrochloride", "result": "some degradation is observed"}, {"measurement": "loss of purity", "setting": "[2]; within six months, 40° C./75% relative humidity", "result": 2, "unit": "%"}]}]}
